One assay concerns Haemonchus contortus L3. Put plainly: microbe, parasite or virus in culture. The format is cell-based. The note with it: Haemonchus contortus, 96 h, read-out: HcL3 Minimal Effective Concentration (MEC).
A further assay concerns D. immitis microfilariae. Put plainly: Dirofilaria immitis, microfilariae (DiMF) in vitro motility assay. It is filed as cell-based. Particulars: Dirofilaria immitis, 72 h, read-out: DiMF minimally effective dose (MEC).

Here are results for 23 compounds from patent publication US10570129B2 (Zoetis Services LLC, priority 2015, dated 2020).

Molecules are shown by their SMILES.

Turning to `O=C(NCc1ccnc(F)c1)n1c2c(c3ccc(OC(F)(F)F)cc31)CN(C/C=C/c1ccc(F)c(Cl)c1)CC2` [Example 375, (E)-2-(3-(3-chloro-4-fluorophenyl)allyl)-N-((2-fluoropyridin-4-yl)methyl)-7-(trifluoromethoxy)-1,2,3,4-tetrahydro-5H-pyrido[4,3-b]indole-5-carboxamide], the minimal effective concentration in the assay with Haemonchus contortus L3 was determined as 1.8 µM; with D. immitis microfilariae, 18.2 µM.

Regarding `O=C(NCc1ccnc(Cl)c1)n1c2c(c3ccc(C(F)(F)F)cc31)CN(C/C=C/c1ccc(Cl)c(Cl)c1)CC2` [Example 158, (E)-N-((2-chloropyridin-4-yl)methyl)-2-(3-(3,4-dichlorophenyl)allyl)-7-(trifluoromethyl)-1,2,3,4-tetrahydro-5H-pyrido[4,3-b]indole-5-carboxamide], the minimal effective concentration was 2.2 µM with Haemonchus contortus L3 and 16.8 µM in the assay on D. immitis microfilariae.

With `N#Cc1ccc2c(c1)c1c(n2C(=O)NCc2ccnc(F)c2)CCN(C/C=C/c2cccc(F)c2F)C1` [Example 119, (E)-8-cyano-2-(3-(2,3-difluorophenyl)allyl)-N-((2-fluoropyridin-4-yl)methyl)-1,2,3,4-tetrahydro-5H-pyrido[4,3-b]indole-5-carboxamide], the minimal effective concentration in the assay with Haemonchus contortus L3 is 3.3 µM; with D. immitis microfilariae it was 18.2 µM.

On to `N#Cc1ccc2c3c(n(C(=O)NCc4ccnc(C5CC5)c4)c2c1)CCN(C/C=C/c1ccc(Cl)c(F)c1)C3` [Example 515, (E)-2-(3-(4-chloro-3-fluorophenyl)allyl)-7-cyano-N-((2-cyclopropylpyridin-4-yl)methyl)-1,2,3,4-tetrahydro-5H-pyrido[4,3-b]indole-5-carboxamide], for which the minimal effective concentration in the assay on Haemonchus contortus L3 turned out to be 1.8 µM; in the assay with D. immitis microfilariae, 13.5 µM.

Consider `O=C(NCc1ccnc(Cl)c1)n1c2c(c3c(Cl)cccc31)CN(C/C=C/c1ccc(Cl)cc1)CC2` [Example 214, (E)-9-chloro-2-(3-(4-chlorophenyl)allyl)-N-((2-chloropyridin-4-yl)methyl)-1,2,3,4-tetrahydro-5H-pyrido[4,3-b]indole-5-carboxamide], for which the figures for the minimal effective concentration in the assay with Haemonchus contortus L3 and with D. immitis microfilariae were 0.5 µM and 18.2 µM, respectively.

Regarding `O=C(NCc1ccnc(F)c1)n1c2c(c3cc(Cl)ccc31)CN(C/C=C/c1ccc(Cl)c(F)c1)CC2` [Example 254, (E)-8-chloro-2-(3-(4-chloro-3-fluorophenyl)allyl)-N-((2-fluoropyridin-4-yl)methyl)-1,2,3,4-tetrahydro-5H-pyrido[4,3-b]indole-5-carboxamide], the minimal effective concentration with Haemonchus contortus L3 was determined as 3.3 µM; in the assay with D. immitis microfilariae, 100 µM.

As for `O=C(NCc1ccnc(Cl)c1)n1c2c(c3cc(OC(F)(F)F)ccc31)CN(C/C=C/c1ccc(F)cc1F)CC2` [Example 387, (E)-N-((2-chloropyridin-4-yl)methyl)-2-(3-(2,4-difluorophenyl)allyl)-8-(trifluoromethoxy)-1,2,3,4-tetrahydro-5H-pyrido[4,3-b]indole-5-carboxamide], the minimal effective concentration in the assay with Haemonchus contortus L3 turned out to be 0.2 µM; with D. immitis microfilariae, 3.3 µM.

For `N#Cc1ccc2c(c1)c1c(n2C(=O)NCc2ccnc(F)c2)CCN(C/C=C/c2c(F)cc(Cl)cc2F)C1` [Example 103, (E)-2-(3-(4-chloro-2,6-difluorophenyl)allyl)-8-cyano-N-((2-fluoropyridin-4-yl)methyl)-1,2,3,4-tetrahydro-5H-pyrido[4,3-b]indole-5-carboxamide], the figures for the minimal effective concentration in the assay on Haemonchus contortus L3 and in the assay with D. immitis microfilariae were 0.2 µM and 3.3 µM, respectively.

On to `Cc1cc2c(cc1OC(F)(F)F)c1c(n2C(=O)NCc2ccnc(Cl)c2)CCN(C/C=C/c2ccc(Cl)cc2)C1` [Example 494, (E)-2-(3-(4-chlorophenyl)allyl)-N-((2-chloropyridin-4-yl)methyl)-7-methyl-8-(trifluoromethoxy)-1,2,3,4-tetrahydro-5H-pyrido[4,3-b]indole-5-carboxamide], for which the figures for the minimal effective concentration with Haemonchus contortus L3 and in the assay on D. immitis microfilariae were 1 µM and more than 100 µM, respectively.

Turning to `N#Cc1ccc2c3c(n(C(=O)NCc4ccnc(Cl)c4)c2c1)CCN(C/C=C/c1ccc(Br)c(F)c1)C3` [Example 8, (E)-2-(3-(4-bromo-3-fluorophenyl)allyl)-N-((2-chloropyridin-4-yl)methyl)-7-cyano-1,2,3,4-tetrahydro-5H-pyrido[4,3-b]indole-5-carboxamide], the results for the minimal effective concentration in the assay with Haemonchus contortus L3 and with D. immitis microfilariae were 0.5 µM and 18.2 µM, respectively.

Take `COc1ccc(/C=C/CN2CCc3c(c4ccc(OC(F)(F)F)cc4n3C(=O)NCc3ccnc(Cl)c3)C2)cc1` [Example 358, (E)-N-((2-chloropyridin-4-yl)methyl)-2-(3-(4-methoxyphenyl)allyl)-7-(trifluoromethoxy)-1,2,3,4-tetrahydro-5H-pyrido[4,3-b]indole-5-carboxamide]: the minimal effective concentration was found to be 1.3 µM with Haemonchus contortus L3 and 7.6 µM with D. immitis microfilariae.

`O=C(NCc1cnc(Cl)s1)n1c2c(c3c(OC(F)(F)F)cccc31)CN(C/C=C/c1ccc(Cl)cc1)CC2` [Example 383, (E)-2-(3-(4-chlorophenyl)allyl)-N-((2-chlorothiazol-5-yl)methyl)-9-(trifluoromethoxy)-1,2,3,4-tetrahydro-5H-pyrido[4,3-b]indole-5-carboxamide]: the minimal effective concentration is more than 100 µM with Haemonchus contortus L3 and 5.7 µM in the assay on D. immitis microfilariae.

Take `O=C(NCc1ccnc(Cl)c1)n1c2c(c3c4c(ccc31)COC4)CN(C/C=C/c1ccc(Cl)cc1)CC2` [Example 490, (E)-9-(3-(4-chlorophenyl)allyl)-N-((2-chloropyridin-4-yl)methyl)-1,3,7,8,9,10-hexahydro-6H-furo[3,4-e]pyrido[4,3-b]indole-6-carboxamide]: the minimal effective concentration in the assay with Haemonchus contortus L3 turned out to be 0.2 µM; in the assay on D. immitis microfilariae it was 10 µM.

`O=C(NCc1ccnc(Cl)c1)n1c2c(c3c(Cl)c(F)ccc31)CN(C/C=C/c1ccc(C(F)(F)F)cc1)CC2` [Example 308, (E)-9-chloro-N-((2-chloropyridin-4-yl)methyl)-8-fluoro-2-(3-(4-(trifluoro-methyl)phenyl)allyl)-1,2,3,4-tetrahydro-5H-pyrido[4,3-b]indole-5-carboxamide]: the minimal effective concentration came out at 10.3 µM with Haemonchus contortus L3 and 32.1 µM with D. immitis microfilariae.

As to `O=C(NCc1ccnc(Cl)c1)n1c2c(c3cc(OC(F)(F)F)ccc31)CN(C/C=C/c1ccc(Cl)c(Cl)c1)CC2` [Example 392, (E)-N-((2-chloropyridin-4-yl)methyl)-2-(3-(3,4-dichlorophenyl)allyl)-8-(trifluoromethoxy)-1,2,3,4-tetrahydro-5H-pyrido[4,3-b]indole-5-carboxamide], the values for the minimal effective concentration in the assay with Haemonchus contortus L3 and in the assay on D. immitis microfilariae were 1 µM and 22.2 µM, respectively.

On to `O=C(NCc1ccnc(Cl)c1)n1c2c(c3c(OC(F)(F)F)cccc31)CN(C/C=C/c1ccc(F)cc1)CC2` [Example 357, (E)-N-((2-chloropyridin-4-yl)methyl)-2-(3-(4-fluorophenyl)allyl)-9-(trifluoromethoxy)-1,2,3,4-tetrahydro-5H-pyrido[4,3-b]indole-5-carboxamide], for which the minimal effective concentration was found to be 10 µM in the assay on Haemonchus contortus L3 and 3.3 µM in the assay with D. immitis microfilariae.

For `O=C(NCc1ccnc(Cl)c1)n1c2c(c3cc(Cl)ccc31)CN(C/C=C/c1ccc(Cl)cc1)CC2` [Example 242, (E)-8-chloro-2-(3-(4-chlorophenyl)allyl)-N-((2-chloropyridin-4-yl)methyl)-1,2,3,4-tetrahydro-5H-pyrido[4,3-b]indole-5-carboxamide], the minimal effective concentration was 0.7 µM in the assay on Haemonchus contortus L3 and 10 µM in the assay with D. immitis microfilariae.

Consider `O=C(NCc1ccnc(Cl)c1)n1c2c(c3c(F)cc(C(F)(F)F)cc31)CN(C/C=C/c1ccc(F)cc1)CC2` [Example 325, (E)-N-((2-chloropyridin-4-yl)methyl)-9-fluoro-2-(3-(4-fluorophenyl)allyl)-7-(trifluoromethyl)-1,2,3,4-tetrahydro-5H-pyrido[4,3-b]indole-5-carboxamide], for which the minimal effective concentration was 3.3 µM in the assay on Haemonchus contortus L3 and 7.6 µM in the assay on D. immitis microfilariae.

As for `O=C(NCc1ccnc(Cl)c1)n1c2c(c3cc(Br)ccc31)CN(C/C=C/c1ccc(Cl)c(F)c1)CC2` [Example 179, (E)-8-bromo-2-(3-(4-chloro-3-fluorophenyl)allyl)-N-((2-chloropyridin-4-yl)methyl)-1,2,3,4-tetrahydro-5H-pyrido[4,3-b]indole-5-carboxamide], the minimal effective concentration with Haemonchus contortus L3 stood at 0.5 µM; with D. immitis microfilariae, 75.8 µM.

As to `Cc1cccc2c1c1c(n2C(=O)NCc2ccnc(Cl)c2)CCN(C/C=C/c2ccc(Cl)cc2)C1` [Example 147, (E)-2-(3-(4-chlorophenyl)allyl)-N-((2-chloropyridin-4-yl)methyl)-9-methyl-1,2,3,4-tetrahydro-5H-pyrido[4,3-b]indole-5-carboxamide], the values for the minimal effective concentration in the assay with Haemonchus contortus L3 and with D. immitis microfilariae were 2.8 µM and 10 µM, respectively.

On to `CSc1ccc2c(c1)c1c(n2C(=O)NCc2ccnc(Cl)c2)CCN(C/C=C/c2ccc(F)c(F)c2)C1` [Example 446, (E)-N-((2-chloropyridin-4-yl)methyl)-2-(3-(3,4-difluorophenyl)allyl)-8-(methylthio)-1,2,3,4-tetrahydro-5H-pyrido[4,3-b]indole-5-carboxamide], for which the minimal effective concentration in the assay on Haemonchus contortus L3 amounted to 0.5 µM; in the assay on D. immitis microfilariae, 3.3 µM.

With `N#Cc1ccc2c(c1)c1c(n2C(=O)NCc2ccnc(Cl)c2)CCN(C/C=C/c2c(F)cc(Cl)cc2F)C1` [Example 74, (E)-2-(3-(4-chloro-2,6-difluorophenyl)allyl)-N-((2-chloropyridin-4-yl)methyl)-8-cyano-1,2,3,4-tetrahydro-5H-pyrido[4,3-b]indole-5-carboxamide], the minimal effective concentration in the assay on Haemonchus contortus L3 is 0.2 µM; in the assay on D. immitis microfilariae, more than 100 µM.

Take `O=C(NCc1ccnc(Cl)c1)n1c2c(c3cc(Br)ccc31)CN(C/C=C/c1ccc(F)c(Cl)c1)CC2` [Example 182, (E)-8-bromo-2-(3-(3-chloro-4-fluorophenyl)allyl)-N-((2-chloropyridin-4-yl)methyl)-1,2,3,4-tetrahydro-5H-pyrido[4,3-b]indole-5-carboxamide]: the minimal effective concentration with Haemonchus contortus L3 was 1 µM; in the assay with D. immitis microfilariae it was more than 100 µM.
